Assay results taken from ChEMBL document CHEMBL1201862, “PubChem BioAssay data set” (2004).
Activity calls are given as the source filed them.

Legend:
[1] = viability of HCT116 lacking mutant beta-catenin – cell-based, human colon tumor, dose response (AID 1045); format: functional;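 also: HCT116 colon tumor cells with beta catenin knocked out; cells exposed to compound for 60 hours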
[2] = viability of PTEN-deleted HCT116 cells – cell-based, HCT116 PTEN knockout, dose response (AID 1047); format: functional;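 also: HCT116 colon tumor cells with PTEN knocked out; cells exposed to compound for 60 hours before readout; potency for loss of cell viability measured by luminescence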
[3] = viability loss of HPDE-C7K cells – cell-based, fluorescence, HTS, primary screen (AID 431); format: functional; settings: Homo sapiens
[4] = HPDE-C7 pancreatic duct cell viability loss – fluorescence, HTS (AID 430); format: functional, cell-based; settings: Homo sapiens
[5] = viability loss in THP-1 monocytes – THP-1 cells, cytotoxicity control for Vif-APOBEC3G degradation inhibitor project, dose response (AID 1117359); format: functional; settings: THP-1
Aminopeptidase N = target: T1, Aminopeptidase N (Plasmodium falciparum FcB1/Columbia, UniProt O96935); assay: malaria alanyl aminopeptidase activity blockers – biochemical, fluorogenic H-Leu-NHMec substrate, 1536-well (AID 1445); set-up: species or system Plasmodium falciparum 3D7, 3D7
T1 sequence (O96935 whole entry): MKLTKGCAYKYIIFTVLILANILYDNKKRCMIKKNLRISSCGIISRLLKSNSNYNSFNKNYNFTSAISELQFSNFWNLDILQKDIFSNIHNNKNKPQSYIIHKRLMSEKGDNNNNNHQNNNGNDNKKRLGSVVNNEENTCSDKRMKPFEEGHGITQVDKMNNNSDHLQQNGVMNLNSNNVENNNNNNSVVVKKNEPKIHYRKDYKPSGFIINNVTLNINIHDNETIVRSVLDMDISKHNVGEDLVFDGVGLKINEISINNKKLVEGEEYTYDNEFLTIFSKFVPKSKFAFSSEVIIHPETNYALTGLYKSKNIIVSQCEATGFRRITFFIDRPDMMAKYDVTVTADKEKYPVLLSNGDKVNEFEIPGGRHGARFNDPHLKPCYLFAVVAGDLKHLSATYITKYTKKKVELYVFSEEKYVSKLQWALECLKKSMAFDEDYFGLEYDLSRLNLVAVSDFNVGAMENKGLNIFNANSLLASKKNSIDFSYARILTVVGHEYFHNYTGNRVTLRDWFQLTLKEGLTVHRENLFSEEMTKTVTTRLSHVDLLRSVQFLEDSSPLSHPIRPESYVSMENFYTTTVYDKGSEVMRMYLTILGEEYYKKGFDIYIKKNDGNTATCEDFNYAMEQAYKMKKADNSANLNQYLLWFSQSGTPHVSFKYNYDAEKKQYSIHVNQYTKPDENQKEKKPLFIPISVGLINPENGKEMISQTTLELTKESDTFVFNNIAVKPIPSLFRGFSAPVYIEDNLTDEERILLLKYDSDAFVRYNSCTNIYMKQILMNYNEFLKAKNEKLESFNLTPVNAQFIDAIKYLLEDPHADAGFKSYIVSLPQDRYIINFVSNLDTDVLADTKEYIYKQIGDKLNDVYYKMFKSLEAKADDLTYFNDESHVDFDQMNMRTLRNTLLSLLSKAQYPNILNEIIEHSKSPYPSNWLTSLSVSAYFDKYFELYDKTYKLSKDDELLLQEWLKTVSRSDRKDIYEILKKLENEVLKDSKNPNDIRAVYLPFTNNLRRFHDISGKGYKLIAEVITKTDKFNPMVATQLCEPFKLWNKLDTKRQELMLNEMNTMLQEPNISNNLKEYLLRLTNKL

[6] = target: T2, Mannose-6-phosphate isomerase (Homo sapiens, UniProt P34949); assay: MPI enzyme activity inhibition – biochemical, fluorescence intensity, coupled assay, primary screen (AID 1209)
T2 sequence (P34949 whole entry): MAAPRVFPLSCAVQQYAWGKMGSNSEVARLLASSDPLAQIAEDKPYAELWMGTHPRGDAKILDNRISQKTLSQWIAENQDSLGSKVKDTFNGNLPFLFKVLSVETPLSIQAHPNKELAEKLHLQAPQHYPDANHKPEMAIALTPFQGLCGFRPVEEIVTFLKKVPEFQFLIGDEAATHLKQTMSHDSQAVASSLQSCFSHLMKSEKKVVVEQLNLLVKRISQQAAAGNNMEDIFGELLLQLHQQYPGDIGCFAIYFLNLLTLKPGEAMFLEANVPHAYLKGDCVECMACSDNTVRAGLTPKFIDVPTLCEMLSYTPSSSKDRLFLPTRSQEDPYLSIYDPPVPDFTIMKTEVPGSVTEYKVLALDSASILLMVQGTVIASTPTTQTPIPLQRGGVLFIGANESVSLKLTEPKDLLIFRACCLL

[7] = target: T2, Mannose-6-phosphate isomerase; assay: MPI inhibition at elevated mannose 6-phosphate – biochemical, fluorescence intensity, high mannose 6-phosphate, primary screen (AID 1220)
[8] = target: Peroxisome proliferator-activated receptor gamma/Nuclear receptor coactivator 3 (Homo sapiens, UniProt P37231); format: functional;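 also: agonist potency for raising coactivator recruitment to the receptor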
[9] = target: Peroxisome proliferator-activated receptor gamma/Nuclear receptor coactivator 1 (Homo sapiens, UniProt P37231); format: functional;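 also: agonist potency as compounds enhance coactivator SRC-1 recruitment to PPARgamma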
[10] = target: Peroxisome proliferator-activated receptor gamma/Nuclear receptor coactivator 2 (Homo sapiens, UniProt P37231); format: functional;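 also: agonist potency for raising coactivator recruitment to the receptor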
[11] = Trypanosoma cruzi growth suppression in host cells – NIH3T3 host cells, beta-gal luminescence, confirmation (AID 2044); format: functional, cell-based;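 also: intracellular parasites grown in NIH/3T3 mouse fibroblasts as host cells; luminescent beta-galactosidase reporter signal from transgenic T. cruzi replicating inside host cells; inhibitors lower the luminescence signal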
[12] = target: T3, DNA repair protein RAD52 homolog (Homo sapiens, UniProt P43351); format: functional, biochemical
T3 sequence (P43351 whole entry): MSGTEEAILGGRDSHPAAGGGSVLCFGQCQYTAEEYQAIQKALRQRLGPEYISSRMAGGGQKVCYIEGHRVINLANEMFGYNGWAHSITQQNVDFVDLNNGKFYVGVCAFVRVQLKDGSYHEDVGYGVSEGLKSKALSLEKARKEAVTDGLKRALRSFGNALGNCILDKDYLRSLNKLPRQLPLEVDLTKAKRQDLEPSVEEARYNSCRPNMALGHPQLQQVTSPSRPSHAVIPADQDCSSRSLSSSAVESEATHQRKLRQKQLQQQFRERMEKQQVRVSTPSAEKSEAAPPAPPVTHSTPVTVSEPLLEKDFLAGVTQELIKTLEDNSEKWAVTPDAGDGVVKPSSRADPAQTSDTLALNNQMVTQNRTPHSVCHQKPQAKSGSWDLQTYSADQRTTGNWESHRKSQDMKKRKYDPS

[13] = NIH3T3 cell viability loss – ATP luminescence, mouse fibroblasts, counter-screen, dose response (AID 2010); format: functional, cell-based; settings: NIH3T3;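 also: cells exposed to compound for about 90 hours before reading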
BJ [14] = assay: BJ-TERT-LT-ST fibroblast viability loss – cell-based, RAS-independent, luminescence, dose response (AID 1935); format: functional; settings: Homo sapiens;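 also: BJ fibroblasts immortalized with TERT plus LT and ST oncogenes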
BJ [15] = assay: BJ-TERT fibroblast viability loss – cell-based, RAS-independent, luminescence, dose response (AID 1933); format: functional; settings: Homo sapiens
BJ [16] = assay: cells; format: functional, cell-based; settings: Homo sapiens
[17] = DRD fibroblast viability loss – cell-based, non-viral oncogenic, luminescence, dose response (AID 1934); format: functional; settings: Homo sapiens
Protein RecA = target: T4, Protein RecA (Mycobacterium tuberculosis, UniProt P9WHJ3); assay: Fluorescence Cell-Free Homogeneous Dose Retest to Identify Inhibitors of RecA-Intein Splicing Activity. [Related pubchem assays (depositor defined):AID2097, AID2223, AID489010, AID492950]; format: functional
T4 sequence (P9WHJ3 whole entry): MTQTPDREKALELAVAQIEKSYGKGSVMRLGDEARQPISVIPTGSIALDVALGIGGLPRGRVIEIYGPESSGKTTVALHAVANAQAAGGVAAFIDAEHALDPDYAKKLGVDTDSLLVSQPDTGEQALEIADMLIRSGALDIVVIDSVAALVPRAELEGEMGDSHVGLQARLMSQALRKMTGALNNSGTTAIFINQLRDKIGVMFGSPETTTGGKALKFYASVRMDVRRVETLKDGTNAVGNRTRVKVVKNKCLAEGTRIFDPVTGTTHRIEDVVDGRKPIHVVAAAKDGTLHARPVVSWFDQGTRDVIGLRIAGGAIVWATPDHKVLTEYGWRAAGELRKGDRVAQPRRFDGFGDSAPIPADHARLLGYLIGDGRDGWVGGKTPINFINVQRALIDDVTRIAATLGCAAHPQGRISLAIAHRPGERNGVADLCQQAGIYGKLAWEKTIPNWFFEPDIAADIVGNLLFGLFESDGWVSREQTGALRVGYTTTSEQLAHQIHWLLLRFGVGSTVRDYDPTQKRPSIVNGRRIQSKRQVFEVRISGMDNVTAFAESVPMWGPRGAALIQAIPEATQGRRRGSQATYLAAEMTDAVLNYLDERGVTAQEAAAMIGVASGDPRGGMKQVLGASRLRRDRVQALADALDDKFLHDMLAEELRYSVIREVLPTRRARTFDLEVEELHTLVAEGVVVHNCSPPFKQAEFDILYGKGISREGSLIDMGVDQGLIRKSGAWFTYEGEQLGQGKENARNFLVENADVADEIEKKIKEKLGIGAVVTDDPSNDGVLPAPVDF

[18] = target: T5, Replicative DNA helicase DnaB (Mycobacterium tuberculosis, UniProt P9WMR3); assay: DnaB intein splicing inhibitors, dose response, biochemical, cell-free fluorescence (AID 449749); format: functional
T5 sequence (P9WMR3 whole entry): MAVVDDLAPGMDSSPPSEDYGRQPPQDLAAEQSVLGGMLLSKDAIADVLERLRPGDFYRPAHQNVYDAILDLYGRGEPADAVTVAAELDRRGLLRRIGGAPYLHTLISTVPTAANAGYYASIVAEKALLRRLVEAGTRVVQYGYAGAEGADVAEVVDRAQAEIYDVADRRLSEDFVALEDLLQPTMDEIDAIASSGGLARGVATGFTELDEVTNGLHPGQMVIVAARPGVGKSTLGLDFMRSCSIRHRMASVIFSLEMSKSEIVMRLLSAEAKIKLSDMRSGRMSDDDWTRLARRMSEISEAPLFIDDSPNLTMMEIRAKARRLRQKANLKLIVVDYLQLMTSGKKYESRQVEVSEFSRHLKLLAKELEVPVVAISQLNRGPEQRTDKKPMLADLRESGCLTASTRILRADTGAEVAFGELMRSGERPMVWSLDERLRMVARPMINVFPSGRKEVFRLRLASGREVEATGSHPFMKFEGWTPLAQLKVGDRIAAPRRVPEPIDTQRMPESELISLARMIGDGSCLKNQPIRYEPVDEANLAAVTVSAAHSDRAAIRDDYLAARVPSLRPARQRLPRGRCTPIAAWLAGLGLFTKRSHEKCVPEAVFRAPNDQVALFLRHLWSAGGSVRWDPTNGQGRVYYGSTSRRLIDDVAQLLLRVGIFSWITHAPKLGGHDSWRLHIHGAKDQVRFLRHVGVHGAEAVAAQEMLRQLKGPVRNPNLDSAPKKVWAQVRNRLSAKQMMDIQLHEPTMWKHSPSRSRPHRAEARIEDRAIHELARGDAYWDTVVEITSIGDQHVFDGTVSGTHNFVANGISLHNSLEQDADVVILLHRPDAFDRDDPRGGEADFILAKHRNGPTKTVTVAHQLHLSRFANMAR

NADPH oxidase 1 = target: T6, NADPH oxidase 1 (Homo sapiens, UniProt Q9Y5S8); format: functional, cell-based;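 also: Cell-based assay with luminescence read-out, IC50 derived from inhibitor dose-response curves; intracellular ROS from endogenous NOX1 in intact HT29 colon cancer cells; potency of inhibitors that lower the ROS luminescence signal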
T6 sequence (Q9Y5S8 whole entry): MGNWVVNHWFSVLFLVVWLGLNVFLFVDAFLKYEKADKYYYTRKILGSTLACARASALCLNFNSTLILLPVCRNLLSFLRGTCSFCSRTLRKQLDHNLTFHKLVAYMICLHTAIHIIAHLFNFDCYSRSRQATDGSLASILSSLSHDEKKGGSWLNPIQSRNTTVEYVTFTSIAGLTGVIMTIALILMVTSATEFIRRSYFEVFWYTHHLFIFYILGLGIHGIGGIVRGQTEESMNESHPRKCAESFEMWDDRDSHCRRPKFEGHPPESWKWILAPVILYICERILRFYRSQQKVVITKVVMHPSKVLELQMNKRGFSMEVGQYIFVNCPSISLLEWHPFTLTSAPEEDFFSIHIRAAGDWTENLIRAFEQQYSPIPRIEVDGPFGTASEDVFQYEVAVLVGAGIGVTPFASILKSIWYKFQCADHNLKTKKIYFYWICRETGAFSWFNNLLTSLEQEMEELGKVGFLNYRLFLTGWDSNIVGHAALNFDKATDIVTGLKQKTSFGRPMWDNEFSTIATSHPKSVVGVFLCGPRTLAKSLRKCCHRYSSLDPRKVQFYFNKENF

Peroxisome proliferator-activated receptor gamma/Nuclear receptor coactivator 2, sequence (P37231 whole entry): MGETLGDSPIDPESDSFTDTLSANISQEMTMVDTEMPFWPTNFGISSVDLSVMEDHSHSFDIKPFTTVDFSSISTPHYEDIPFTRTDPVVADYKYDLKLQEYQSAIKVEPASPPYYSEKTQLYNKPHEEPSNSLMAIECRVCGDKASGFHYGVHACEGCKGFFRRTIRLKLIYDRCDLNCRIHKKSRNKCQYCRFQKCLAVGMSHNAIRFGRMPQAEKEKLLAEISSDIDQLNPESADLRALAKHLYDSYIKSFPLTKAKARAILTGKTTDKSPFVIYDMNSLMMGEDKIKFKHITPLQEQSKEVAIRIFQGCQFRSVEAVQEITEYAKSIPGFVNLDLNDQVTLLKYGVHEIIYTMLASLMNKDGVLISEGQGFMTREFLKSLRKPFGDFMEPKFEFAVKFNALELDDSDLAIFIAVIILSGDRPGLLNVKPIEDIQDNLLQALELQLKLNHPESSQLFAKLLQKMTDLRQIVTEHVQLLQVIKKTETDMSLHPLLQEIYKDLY
Peroxisome proliferator-activated receptor gamma/Nuclear receptor coactivator 2, sequence (Q15596 whole entry, further chain): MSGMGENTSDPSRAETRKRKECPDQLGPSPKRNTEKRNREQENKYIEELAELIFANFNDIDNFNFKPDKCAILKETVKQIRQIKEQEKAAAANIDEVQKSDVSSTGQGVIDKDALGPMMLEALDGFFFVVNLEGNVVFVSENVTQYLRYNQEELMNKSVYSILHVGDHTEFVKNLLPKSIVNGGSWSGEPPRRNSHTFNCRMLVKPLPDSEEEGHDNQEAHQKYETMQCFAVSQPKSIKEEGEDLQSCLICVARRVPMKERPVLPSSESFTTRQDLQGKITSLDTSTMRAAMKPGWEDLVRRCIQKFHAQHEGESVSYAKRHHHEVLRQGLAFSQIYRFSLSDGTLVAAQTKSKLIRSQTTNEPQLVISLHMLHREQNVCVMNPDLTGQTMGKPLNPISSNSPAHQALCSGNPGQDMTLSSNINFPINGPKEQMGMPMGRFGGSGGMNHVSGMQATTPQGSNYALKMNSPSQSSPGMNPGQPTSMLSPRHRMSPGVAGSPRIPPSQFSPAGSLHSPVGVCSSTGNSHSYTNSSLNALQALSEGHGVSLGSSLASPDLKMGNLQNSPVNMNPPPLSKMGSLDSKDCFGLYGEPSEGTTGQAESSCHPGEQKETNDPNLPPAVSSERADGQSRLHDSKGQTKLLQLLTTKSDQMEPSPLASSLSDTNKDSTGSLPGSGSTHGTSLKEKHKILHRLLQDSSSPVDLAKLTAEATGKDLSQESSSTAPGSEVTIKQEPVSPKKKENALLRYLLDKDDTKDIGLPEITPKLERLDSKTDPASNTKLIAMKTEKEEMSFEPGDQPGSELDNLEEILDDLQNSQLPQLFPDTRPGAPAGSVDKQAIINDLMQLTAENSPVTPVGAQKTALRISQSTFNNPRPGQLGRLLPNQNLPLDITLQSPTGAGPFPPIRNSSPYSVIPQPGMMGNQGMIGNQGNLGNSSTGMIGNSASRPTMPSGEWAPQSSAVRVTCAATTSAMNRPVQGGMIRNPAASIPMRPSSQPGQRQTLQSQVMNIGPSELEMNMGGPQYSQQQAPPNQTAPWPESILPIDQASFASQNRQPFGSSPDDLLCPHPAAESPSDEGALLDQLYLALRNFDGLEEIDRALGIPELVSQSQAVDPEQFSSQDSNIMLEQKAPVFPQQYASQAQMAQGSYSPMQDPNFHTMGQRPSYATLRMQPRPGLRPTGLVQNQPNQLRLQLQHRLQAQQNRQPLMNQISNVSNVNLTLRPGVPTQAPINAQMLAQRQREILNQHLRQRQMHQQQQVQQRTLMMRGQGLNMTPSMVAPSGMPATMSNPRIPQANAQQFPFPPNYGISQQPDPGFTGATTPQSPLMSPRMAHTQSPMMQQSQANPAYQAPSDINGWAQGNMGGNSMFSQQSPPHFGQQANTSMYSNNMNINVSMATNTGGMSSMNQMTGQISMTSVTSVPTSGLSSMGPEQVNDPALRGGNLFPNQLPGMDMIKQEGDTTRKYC
Peroxisome proliferator-activated receptor gamma/Nuclear receptor coactivator 1, sequence (P37231 whole entry): as the sequence (P37231 whole entry) above
Peroxisome proliferator-activated receptor gamma/Nuclear receptor coactivator 1, sequence (Q15788 whole entry, further chain): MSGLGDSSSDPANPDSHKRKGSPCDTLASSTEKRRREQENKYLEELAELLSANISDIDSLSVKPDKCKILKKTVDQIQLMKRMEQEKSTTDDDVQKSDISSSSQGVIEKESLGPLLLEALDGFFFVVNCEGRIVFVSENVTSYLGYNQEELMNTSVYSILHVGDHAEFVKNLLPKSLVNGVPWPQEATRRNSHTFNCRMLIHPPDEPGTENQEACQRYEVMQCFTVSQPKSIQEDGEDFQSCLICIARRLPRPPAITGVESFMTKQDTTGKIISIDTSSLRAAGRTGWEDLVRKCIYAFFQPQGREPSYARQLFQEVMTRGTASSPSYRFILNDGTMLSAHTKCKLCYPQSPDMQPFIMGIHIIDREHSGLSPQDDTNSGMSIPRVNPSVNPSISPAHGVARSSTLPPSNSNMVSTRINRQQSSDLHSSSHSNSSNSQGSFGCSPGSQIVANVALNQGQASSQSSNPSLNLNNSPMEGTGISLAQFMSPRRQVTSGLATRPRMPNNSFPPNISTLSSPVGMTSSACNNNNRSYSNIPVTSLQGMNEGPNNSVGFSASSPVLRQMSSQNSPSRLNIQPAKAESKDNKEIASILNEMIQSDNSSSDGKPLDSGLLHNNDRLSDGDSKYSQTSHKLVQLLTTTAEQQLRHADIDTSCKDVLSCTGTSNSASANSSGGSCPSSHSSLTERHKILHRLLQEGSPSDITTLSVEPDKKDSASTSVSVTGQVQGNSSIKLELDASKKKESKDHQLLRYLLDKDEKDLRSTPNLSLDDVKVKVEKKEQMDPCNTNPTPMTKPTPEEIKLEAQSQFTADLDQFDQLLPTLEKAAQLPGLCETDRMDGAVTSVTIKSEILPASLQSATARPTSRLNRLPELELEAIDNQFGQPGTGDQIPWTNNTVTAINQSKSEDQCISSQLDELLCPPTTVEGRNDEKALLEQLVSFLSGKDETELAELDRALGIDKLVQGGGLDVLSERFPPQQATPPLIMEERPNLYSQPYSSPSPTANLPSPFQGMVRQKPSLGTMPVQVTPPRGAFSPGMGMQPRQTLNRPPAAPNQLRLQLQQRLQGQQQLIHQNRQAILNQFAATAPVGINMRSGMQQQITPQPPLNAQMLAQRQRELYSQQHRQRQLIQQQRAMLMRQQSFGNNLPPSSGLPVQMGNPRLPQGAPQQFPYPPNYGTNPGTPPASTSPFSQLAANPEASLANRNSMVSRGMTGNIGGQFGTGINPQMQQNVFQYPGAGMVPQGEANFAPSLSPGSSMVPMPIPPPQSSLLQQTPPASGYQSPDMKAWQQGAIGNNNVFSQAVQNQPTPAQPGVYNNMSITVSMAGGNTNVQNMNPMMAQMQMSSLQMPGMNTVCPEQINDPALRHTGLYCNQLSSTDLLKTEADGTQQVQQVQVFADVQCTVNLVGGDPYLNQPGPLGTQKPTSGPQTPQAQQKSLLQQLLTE

O=S(=O)(CCN(CCS(=O)(=O)C(F)(F)F)CC1CCCO1)C(F)(F)F (configuration not stated)
EC50 [1]: 9.32 µM (active)
EC50 [2]: 15.3 µM (active)
EC50 [3]: 10.6 µM (active)
EC50 [4]: 11.1 µM (active)

CCOC(=O)N1CCN(c2c(NCc3ccccc3Cl)c(=O)c2=O)CC1
CC50 [5]: 29.6 µM (active)
IC50 (Aminopeptidase N): 69.3 µM (active)

CN1C(=O)N(C)C(=O)C2(Cc3c(ccc4ccccc34)N(C)C2)C1=O
IC50 [6]: > 50 µM (not active)
IC50 [7]: > 50 µM (not active)

O=C(Nc1ccc([N+](=O)[O-])cc1)/C(=C/c1cccc([N+](=O)[O-])c1)NC(=O)C1CCCCC1
EC50 [8]: > 79.4 µM (not active)
EC50 [9]: > 79.4 µM (not active)
EC50 [10]: > 79.4 µM (not active)

COc1cc2nc(N(CCCN(C)C)C(=O)c3ccc(S(=O)(=O)N4CCc5ccccc54)cc3)sc2cc1OC
EC50 [11]: < 0.1 µM (active)
AC50 [12]: 6.54 µM (active)
EC50 [13]: 16.4 µM (active)
EC50 (cells): 0.129 µM (active)

CC(C)N(c1ccccc1)c1ccc(NC(=O)CCl)cc1
EC50 [11]: < 0.1 µM (active)
EC50 (BJ [14]): > 150 µM (inconclusive)
EC50 [13]: > 60 µM (not active)
EC50 (BJ [15]): 0.344 µM (inconclusive)
EC50 (BJ [16]): 108 µM (active)
EC50 [17]: 1.37 µM (active)
EC50 (Protein RecA): 0.505 µM (active)
EC50 (cells): 0.102 µM (active)
AC50 [18]: 4.41 µM (active)

Cc1cc2oc(=O)cc(CN3CCN(C/C=C/c4ccccc4)CC3)c2cc1O
EC50 [11]: 0.102 µM (active)
EC50 [13]: > 60 µM (not active)
EC50 [3]: > 20 µM (not active)
EC50 [4]: > 20 µM (not active)

CCOC(=O)N1CCN(S(=O)(=O)c2ccc(C(=O)N(CCCN(C)C)c3nc4cc(OC)ccc4s3)cc2)CC1
EC50 [11]: < 0.1 µM (active)
EC50 [13]: > 30 µM (not active)
EC50 (cells): 0.03 µM (active)

CN(O)/C=N/C(=S)Nc1ccc(Cl)cc1Cl
IC50 [6]: > 50 µM (not active)

Fc1ccc(-c2nc(-c3ccccc3)c(-c3ccccc3)[nH]2)cc1
IC50 (NADPH oxidase 1): > 17 µM (not active)

Cc1occc1C(=O)N/N=C/c1ccc(Br)s1
EC50 [8]: > 79.4 µM (not active)
EC50 [9]: > 79.4 µM (not active)
EC50 [10]: > 79.4 µM (not active)

Clc1ccc(-c2nc(-c3ccccc3)c(-c3ccccc3)[nH]2)cc1
IC50 (NADPH oxidase 1): > 17 µM (not active)
